Measured values as given in US5942508A, “Method for solubilizing pyridonecarboxylic acid solubilizer thereof and aqueous solution containing solubilized pyridonecarboxylic acid” (Senju Pharmaceutical Co., Ltd., priority 1997, dated 1999).
Converted amounts (≈) assume the structure as drawn.

Key:
[1] = Effect of arylcarboxylic acid on solubility of pyridonecarboxylic acid - 3 (Table 3); format: physicochemical; conditions: 0.1% aqueous sodium dihydrogenphosphate, 25° C., one week
Procedure: Experimental Example 3: Effect of arylcarboxylic acid on solubility of pyridonecarboxylic acid - 3
(§1) To a 0.1% aqueous sodium dihydrogenphosphate solution (100 ml) containing pranoprofen, ibuprofen, diclofenac, bromfenac, 2-naphthoic acid, 2-naphthylacetic acid or 2-naphthoxyacetic acid was added lomefloxacin in excess, and the pH thereof was adjusted to 8-9 with hydrochloric acid or sodium hydroxide. The mixture was shaken for one week at 25° C. and filtered through a 0.45 μm membrane filter, which was followed by the determination of a lomefloxacin content by high performance liquid chromatography.

[2] = Increase of solubility by addition of arylcarboxylic acid (Tables 1 to 3); format: physicochemical; conditions: about, addition of at least one arylcarboxylic acid (pranoprofen, ibuprofen, diclofenac, bromfenac, 2-naphthoic, 2-naphthylacetic, 2-naphthoxyacetic acid)
Procedure: as §1, with “ibuprofen” for “ibuprofen, diclofenac, bromfenac, 2-naphthoic acid, 2-naphthylacetic acid”, “bromfenac” for “2-naphthoxyacetic acid”, “norfloxacin or enoxacin” for “lomefloxacin”, “7-8” for “8-9”
as §1, with “containing” for “containing pranoprofen, ibuprofen, diclofenac, bromfenac,”, “norfloxacin or enoxacin” for “lomefloxacin”
as §1

[3] = Effect of arylcarboxylic acid on solubility of pyridonecarboxylic acid - 1 (Table 1); format: physicochemical; conditions: 0.1% aqueous sodium dihydrogenphosphate, 25° C., one week
Procedure: Experimental Example 1: Effect of arylcarboxylic acid on solubility of pyridonecarboxylic acid - 1
as §1, with “ibuprofen” for “ibuprofen, diclofenac, bromfenac, 2-naphthoic acid, 2-naphthylacetic acid”, “bromfenac” for “2-naphthoxyacetic acid”, “norfloxacin or enoxacin” for “lomefloxacin”, “7-8” for “8-9”

[4] = Effect of arylcarboxylic acid on solubility of pyridonecarboxylic acid - 2 (Table 2); format: physicochemical; conditions: 0.1% aqueous sodium dihydrogenphosphate, 25° C., one week
Procedure: Experimental Example 2: Effect of arylcarboxylic acid on solubility of pyridonecarboxylic acid - 2
as §1, with “containing” for “containing pranoprofen, ibuprofen, diclofenac, bromfenac,”, “norfloxacin or enoxacin” for “lomefloxacin”

[5] = pH 8, 2-naphthoic acid added, pH 8, 0.1% aqueous sodium dihydrogenphosphate
[6] = pH 8, 2-naphthoxyacetic acid added, pH 8, 0.1% aqueous sodium dihydrogenphosphate
[7] = pH 8, 2-naphthylacetic acid added, pH 8, 0.1% aqueous sodium dihydrogenphosphate
[8] = pH 8, pranoprofen added, pH 8, 0.1% aqueous sodium dihydrogenphosphate
[9] = pH 8, without addition, pH 8, 0.1% aqueous sodium dihydrogenphosphate
[10] = pH 9, without addition, pH 9, 0.1% aqueous sodium dihydrogenphosphate
[11] = pH 7, bromfenac added, pH 7, 0.1% aqueous sodium dihydrogenphosphate
[12] = pH 7, ibuprofen added, pH 7, 0.1% aqueous sodium dihydrogenphosphate
[13] = pH 7, pranoprofen added, pH 7, 0.1% aqueous sodium dihydrogenphosphate
[14] = pH 7, without addition, pH 7, 0.1% aqueous sodium dihydrogenphosphate
[15] = pH 8, bromfenac added, pH 8, 0.1% aqueous sodium dihydrogenphosphate
[16] = pH 8, ibuprofen added, pH 8, 0.1% aqueous sodium dihydrogenphosphate
[17] = pH 9, 2-naphthoic acid added, pH 9, 0.1% aqueous sodium dihydrogenphosphate
[18] = pH 9, 2-naphthoxyacetic acid added, pH 9, 0.1% aqueous sodium dihydrogenphosphate
[19] = pH 9, 2-naphthylacetic acid added, pH 9, 0.1% aqueous sodium dihydrogenphosphate

Row | increase of solubility by addition of arylcarboxylic acid [2] | solubility thermodynamic at 168 h [3, 11] [µg/mL] | solubility thermodynamic at 168 h [3, 12] [µg/mL] | solubility thermodynamic at 168 h [3, 13] [µg/mL] | solubility thermodynamic at 168 h [3, 14] [µg/mL] | solubility thermodynamic at 168 h [3, 15] [µg/mL] | solubility thermodynamic at 168 h [3, 16] [µg/mL] | solubility thermodynamic at 168 h [3, 8] [µg/mL] | solubility thermodynamic at 168 h [3, 9] [µg/mL] | solubility thermodynamic at 168 h [4, 5] [µg/mL] | solubility thermodynamic at 168 h [4, 6] [µg/mL] | solubility thermodynamic at 168 h [4, 7] [µg/mL] | solubility thermodynamic at 168 h [4, 9] [µg/mL] | solubility thermodynamic at 168 h [4, 17] [µg/mL] | solubility thermodynamic at 168 h [4, 18] [µg/mL] | solubility thermodynamic at 168 h [4, 19] [µg/mL] | solubility thermodynamic at 168 h [4, 10] [µg/mL] | Structure (SMILES) | other results
1 | 1.5-3 times | – | – | – | – | – | – | – | – | – | – | – | – | – | – | – | – | CCn1cc(C(=O)O)c(=O)c2cc(F)c(N3CCNC(C)C3)c(F)c21 (stereo not shown) [lomefloxacin, 1-ethyl-6,8-difluoro-1,4-dihydro-7-(3-methyl-1-piperazinyl)-4-oxo-3-quinolinecarboxylic acid] | solubility thermodynamic at 168 h [1, 5]: 2300 µg/mL (≈ 6550 µM); solubility thermodynamic at 168 h [1, 6]: 2040 µg/mL (≈ 5810 µM); solubility thermodynamic at 168 h [1, 7]: 1800 µg/mL (≈ 5120 µM); solubility thermodynamic at 168 h ([1]; pH 8, diclofenac added, pH 8, 0.1% aqueous sodium dihydrogenphosphate): 1390 µg/mL (≈ 3960 µM); solubility thermodynamic at 168 h [1, 8]: 2140 µg/mL (≈ 6090 µM); solubility thermodynamic at 168 h [1, 9]: 1180 µg/mL (≈ 3360 µM); solubility thermodynamic at 168 h ([1]; pH 9, bromfenac added, pH 9, 0.1% aqueous sodium dihydrogenphosphate): 4700 µg/mL (≈ 13400 µM); solubility thermodynamic at 168 h ([1]; pH 9, diclofenac added, pH 9, 0.1% aqueous sodium dihydrogenphosphate): 3330 µg/mL (≈ 9480 µM); solubility thermodynamic at 168 h ([1]; pH 9, ibuprofen added, pH 9, 0.1% aqueous sodium dihydrogenphosphate): 3500 µg/mL (≈ 9960 µM); solubility thermodynamic at 168 h [1, 10]: 3000 µg/mL (≈ 8540 µM)
2 | 1.5-3 times | 320 (≈ 999 µM) | 300 (≈ 937 µM) | 780 (≈ 2440 µM) | 260 (≈ 812 µM) | 350 (≈ 1090 µM) | 280 (≈ 874 µM) | 630 (≈ 1970 µM) | 250 (≈ 780 µM) | 540 (≈ 1690 µM) | 470 (≈ 1470 µM) | 420 (≈ 1310 µM) | 250 (≈ 780 µM) | 1190 (≈ 3710 µM) | 990 (≈ 3090 µM) | 830 (≈ 2590 µM) | 710 (≈ 2220 µM) | CCn1cc(C(=O)O)c(=O)c2cc(F)c(N3CCNCC3)nc21 [enoxacin, 1-ethyl-6-fluoro-1,4-dihydro-4-oxo-7-(1-piperazinyl)-1,8-naphthyridine-3-carboxylic acid] | solubility (physchem; 0.1% phosphate buffer, pH 7): 280 µg/mL (≈ 874 µM); solubility (physchem; 1.6% borate buffer, pH 6): 1700 µg/mL (≈ 5310 µM)
3 | 1.5-3 times | 410 (≈ 1280 µM) | 430 (≈ 1350 µM) | 1810 (≈ 5670 µM) | 400 (≈ 1250 µM) | 540 (≈ 1690 µM) | 420 (≈ 1320 µM) | 810 (≈ 2540 µM) | 360 (≈ 1130 µM) | 920 (≈ 2880 µM) | 750 (≈ 2350 µM) | 580 (≈ 1820 µM) | 360 (≈ 1130 µM) | 1590 (≈ 4980 µM) | 1600 (≈ 5010 µM) | 2060 (≈ 6450 µM) | 1060 (≈ 3320 µM) | CCn1cc(C(=O)O)c(=O)c2cc(F)c(N3CCNCC3)cc21 [norfloxacin, 1-ethyl-6-fluoro-1,4-dihydro-4-oxo-7-(1-piperazinyl)-3-quinolinecarboxylic acid] | solubility (physchem; 0.1% phosphate buffer, pH 8): 360 µg/mL (≈ 1130 µM); solubility (physchem; 1.6% borate buffer, pH 7): 390 µg/mL (≈ 1220 µM)
